Laboratory results published in the NIST ThermoML archive (doi:10.1016/j.fluid.2012.10.002).
Several values for one entry are separate records, joined by “and”; a condition that tells them apart may be missing. Equal entries are not always repeated.

Test: xn = mol fraction of the nth substance listed
Settings: Gas, Frequency=0.05 MHz, Linear variable-path acoustic interferometer

FC(F)(F)C(F)(F)C(F)(F)F [octafluoropropane] + FC(F)(F)C(F)(F)F
Settings	speed of sound
258.87 K, 181 kPa, x2 = 0	104.06 m/s
261.04 K, 214 kPa, x2 = 0.146	106.6 m/s
261.17 K, 183 kPa, x2 = 0	104.66 m/s
263.69 K, 217 kPa, x2 = 0.146	107.31 m/s
266.22 K, 219 kPa, x2 = 0.146	107.96 m/s
268.73 K, 189 kPa, x2 = 0	106.57 m/s
268.76 K, 222 kPa, x2 = 0.146	108.61 m/s
270.28 K, 190 kPa, x2 = 0	106.94 m/s
271.52 K, 214 kPa, x2 = 0.11	108.77 m/s
271.54 K, 224 kPa, x2 = 0.146	109.31 m/s
273.74 K, 193 kPa, x2 = 0	107.79 m/s
273.82 K, 227 kPa, x2 = 0.146	109.89 m/s
273.86 K, 202 kPa, x2 = 0.048	108.5 m/s
273.88 K, 216 kPa, x2 = 0.11	109.36 m/s
273.9 K, 216 kPa, x2 = 0.11	109.35 m/s
276.23 K, 195 kPa, x2 = 0	108.4 m/s
276.3 K, 219 kPa, x2 = 0.11	109.94 m/s
276.35 K, 229 kPa, x2 = 0.146	110.52 m/s
278.61 K, 206 kPa, x2 = 0.048	109.65 m/s
278.75 K, 197 kPa, x2 = 0	109 m/s
279.06 K, 231 kPa, x2 = 0.146	111.21 m/s
281.01 K, 208 kPa, x2 = 0.048	110.21 m/s
281.09 K, 223 kPa, x2 = 0.11	111.13 m/s
281.24 K, 199 kPa, x2 = 0	109.59 m/s
281.35 K, 233 kPa, x2 = 0.146	111.76 m/s
281.94 K, 224 kPa, x2 = 0.11	111.33 m/s
283.42 K, 225 kPa, x2 = 0.11	111.69 m/s
283.48 K, 210 kPa, x2 = 0.048	110.83 m/s
283.81 K, 201 kPa, x2 = 0	110.19 m/s
284.05 K, 236 kPa, x2 = 0.146	112.44 m/s
285.85 K, 212 kPa, x2 = 0.048	111.38 m/s
285.87 K, 212 kPa, x2 = 0.048	111.39 m/s
285.92 K, 227 kPa, x2 = 0.11	112.29 m/s
286.31 K, 203 kPa, x2 = 0	110.78 m/s
286.39 K, 238 kPa, x2 = 0.146	112.99 m/s
288.79 K, 205 kPa, x2 = 0	111.35 m/s
288.96 K, 241 kPa, x2 = 0.146	113.61 m/s
290.79 K, 231 kPa, x2 = 0.11	113.46 m/s
291.2 K, 207 kPa, x2 = 0	111.92 m/s
291.22 K, 217 kPa, x2 = 0.048	112.64 m/s
291.37 K, 243 kPa, x2 = 0.146	114.18 m/s
293.19 K, 218 kPa, x2 = 0.048	113.11 m/s
293.86 K, 245 kPa, x2 = 0.146	114.77 m/s
294.01 K, 245 kPa, x2 = 0.146	114.81 m/s
294.82 K, 246 kPa, x2 = 0.146	115.01 m/s
294.96 K, 235 kPa, x2 = 0.11	114.43 m/s
295.16 K, 235 kPa, x2 = 0.11	114.49 m/s
295.22 K, 220 kPa, x2 = 0.048	113.57 m/s
295.26 K, 210 kPa, x2 = 0	112.82 m/s
295.26 K, 220 kPa, x2 = 0.048	113.58 m/s
295.28 K, 220 kPa, x2 = 0.048	113.59 m/s
296.26 K, 247 kPa, x2 = 0.146	115.34 m/s
297.13 K, 248 kPa, x2 = 0.146	115.54 m/s and 115.55 m/s
298.69 K, 250 kPa, x2 = 0.146	115.9 m/s
300.46 K, 224 kPa, x2 = 0.048	114.77 m/s
301.15 K, 215 kPa, x2 = 0	114.22 m/s
301.17 K, 252 kPa, x2 = 0.146	116.47 m/s
302.82 K, 226 kPa, x2 = 0.048	115.32 m/s
302.91 K, 242 kPa, x2 = 0.11	116.26 m/s
303.66 K, 254 kPa, x2 = 0.146	117.06 m/s
303.67 K, 216 kPa, x2 = 0	114.79 m/s
303.69 K, 217 kPa, x2 = 0	114.78 m/s
306.23 K, 219 kPa, x2 = 0	115.37 m/s
307.6 K, 230 kPa, x2 = 0.048	116.4 m/s
308.64 K, 259 kPa, x2 = 0.146	118.2 m/s
311.15 K, 261 kPa, x2 = 0.146	118.77 m/s
311.27 K, 223 kPa, x2 = 0	116.48 m/s
312.3 K, 234 kPa, x2 = 0.048	117.45 m/s
312.47 K, 251 kPa, x2 = 0.11	118.45 m/s
313.65 K, 264 kPa, x2 = 0.146	119.34 m/s
314.99 K, 253 kPa, x2 = 0.11	119.04 m/s
315.91 K, 237 kPa, x2 = 0.048	118.26 m/s
316.18 K, 266 kPa, x2 = 0.146	119.91 m/s
316.26 K, 226 kPa, x2 = 0	117.58 m/s
317.39 K, 255 kPa, x2 = 0.11	119.56 m/s
318.68 K, 268 kPa, x2 = 0.146	120.47 m/s
319.74 K, 257 kPa, x2 = 0.11	120.07 m/s
321.23 K, 230 kPa, x2 = 0	118.64 m/s
322.15 K, 259 kPa, x2 = 0.11	120.6 m/s
323.51 K, 273 kPa, x2 = 0.146	121.55 m/s
323.74 K, 232 kPa, x2 = 0	119.18 m/s

FC(F)(F)C(F)(F)F [hexafluoroethane] + FC(F)(F)C(F)(F)C(F)(F)F
x1 = 1
Settings	speed of sound [m/s]
261.1 K, 183 kPa	127.95
263.74 K, 185 kPa	128.64
266.3 K, 186 kPa	129.3
268.82 K, 188 kPa	129.95
270.22 K, 189 kPa	130.3
271.26 K, 190 kPa	130.57
273.89 K, 192 kPa	131.26
276.33 K, 194 kPa	131.87
278.84 K, 195 kPa	132.51
281.3 K, 197 kPa	133.11
281.31 K, 197 kPa	133.1
283.84 K, 199 kPa	133.77
286.31 K, 201 kPa	134.35
288.82 K, 203 kPa	135
293.64 K, 206 kPa	136.18
296.91 K, 208 kPa	136.93
301.03 K, 212 kPa	137.94
303.69 K, 213 kPa	138.56
306.24 K, 215 kPa	139.22
308.82 K, 217 kPa	139.82
311.28 K, 219 kPa	140.41
313.79 K, 221 kPa	141
318.78 K, 224 kPa	142.17
323.78 K, 228 kPa	143.37
